Reference: patent publication US20250326815A1, “STAPLE-CONTAINING POLYPEPTIDES AND APPLICATION THEREOF” (Soter Biopharma Pte. Ltd., priority 2021, published 2025)
pEC50: −log10 of the molar value.

Legend:
GCGR = target: T1, GCGR (Homo sapiens, UniProt P47871); test: In vitro agonistic activity on GCGR (cAMP assay); type: cell-based; settings: HEK293 cell line; for Agonistic activity on GCGR Max Activity (%): Max Dose 100 nM
T1 construct: host or cells: HEK293
Procedure: The cell lines were constructed by Shanghai WuXi AppTec.
The compounds to be assayed were serially diluted 4-fold with Bravo to obtain 10 concentrations, with a starting concentration of 30 μM.
1) 100 nL of the compound was transferred to an OptiPlate-384 plate using Echo.
2) The OptiPlate-384 plate was centrifuged at 1000 rpm for 5 seconds.
1) A GLP-1R/GIPR/GCGR cell cryopreservation tube was quickly placed in warm water at 37° C. to thaw.
2) The cell suspension was transferred to a 15 mL centrifuge tube, and gently washed with 10 ml of HBSS.
3) The centrifuge tube was centrifuged at 1000 rpm at room temperature for 1 minute.
4) The supernatant was discarded.
5) The cells at the bottom were gently dispersed and gently washed with 10 ml of HBSS. The cells were centrifuged and sedimented, and finally resuspended with the assay buffer.
6) Vi-cell was used to measure the cell density and viability.
7) The concentration of GLP-1R/GIPR/GCGR cells was diluted to 2.0*105/mL with the assay buffer.
8) […] of the diluted cell suspension was transferred to the OptiPlate-384 plate.
9) The plate was incubated at room temperature for 30 minutes.
1) 10 μL of 800 nM gradient diluted cAMP standard was added into an empty well of the OptiPlate-384 plate.
2) 10 μL of cAMP assay reagent was added.
3) The OptiPlate-384 plate was covered with a TopSeal-A film and incubated at room temperature for 60 minutes.
The TopSeal-A was peeled off and the plate was read on the EnVision.

DIO mice = test: Drug efficacy study in DIO mice (weight loss); type: in vivo; settings: 10 nmol/kg subcutaneous, once every three days
Procedure: The weight loss effect of the assay compound in DIO mice was studied.
1. After arriving at the facility, the DIO mice were raised in an animal breeding room with strictly controlled environmental conditions. The temperature in the breeding room was maintained at 20 to 24° C., and the humidity was maintained at 30 to 70%. The temperature and humidity in the breeding room were monitored in real time using a thermo-hygrometer, and the temperature and humidity were recorded twice a day (once in the morning and once in the afternoon). The lighting in the animal breeding room was controlled by an electronic timed lighting system. The lights were on for 12 hours and off for 12 hours every day (turned on at 7:00 am and turned off at 19:00 pm). During the assay, the animals were raised in individual cages and toys were provided in each cage. During the assay, the animals had free access to food (growth/breeding feed for rats and mice) and water.
2. The animals in each group were subcutaneously injected with a solvent or an assay compound (10 nmol/kg), respectively. The administration time was 9:30 in the morning. The administration frequency was once every three days, and the administration cycle was 21 days.

mouse plasma albumin = test: Plasma protein binding (PPB), mouse; type: in vitro ADME; design: key: NA indicates that the plasma protein binding is too high, and no free drug is detected at a normal plasma protein concentration; settings: ultracentrifugation
Procedure: The binding degree of the assay compound to human/mouse plasma albumin was studied.
1. Matrix preparation: on the day of the assay, plasma was thawed in cold water and centrifuged at 3220 rpm for 5 min to remove all clots. The pH of the resulting plasma was measured and adjusted to 7.4±0.1 using 1% phosphoric acid or IN sodium hydroxide as needed.
2. Dilution procedure for the assay compound: the assay compound was dissolved in dimethyl sulfoxide (DMSO) to prepare stock solutions with concentrations of 10 mM and 2 mM, respectively. A 40 μM working solution was prepared by diluting 2 μL of stock solution (2 mM) with 98 μL of DMSO. A 400 μM working solution of the control compound was prepared by diluting 10 μL of stock solution with 240 μL of DMSO. The working solution of the compound (5 μL) was mixed well with a blank matrix (995 μL) at a ratio of 1:200 to prepare a loading matrix.
3.1 An equal volume of 30 μL of loading matrix (n=2) was transferred to a sample collection plate to prepare a time 0 (T0) sample for residue determination. […]
3.4 At the end of centrifugation, 30 μL of protein-free samples and 30 μL of T samples were transferred from the second layer of the supernatant (below the top layer) to a new sample collection plate. […] The mixture was centrifuged at 4000 rpm for 20 min and 100 μL of supernatant from each sample was analyzed by LC-MS/MS.

[1] = Pharmacokinetic evaluation in cynomolgus monkeys; type: in vivo; settings: cynomolgus monkey, plasma, 0.02 mg/kg, single SC 0.02 mpk; for half-life: read-out: Half-life T1/2 (converted); for AUC(0-t): read-out: Integral of the SC concentration AUC0-240 h; for Cmax: read-out: Maximum plasma concentration
Procedure: Pharmacokinetics of the compound in cynomolgus monkeys were assayed.
The pharmacokinetic characteristics of the compound in mammals after a subcutaneous injection were assayed using the standard protocol. In the assay, the candidate compound was formulated into a clear solution and given to cynomolgus monkeys by a single subcutaneous injection (SC, 0.02 mpk). The solvent of the subcutaneous injection was citrate buffer (20 mM, pH=7). Whole blood was collected, and plasma was prepared. Drug concentration was analyzed by LC-MS/MS method, and pharmacokinetic parameters were calculated using Phoenix WinNonlin software.

T1 sequence (P47871 26-477, species assumed): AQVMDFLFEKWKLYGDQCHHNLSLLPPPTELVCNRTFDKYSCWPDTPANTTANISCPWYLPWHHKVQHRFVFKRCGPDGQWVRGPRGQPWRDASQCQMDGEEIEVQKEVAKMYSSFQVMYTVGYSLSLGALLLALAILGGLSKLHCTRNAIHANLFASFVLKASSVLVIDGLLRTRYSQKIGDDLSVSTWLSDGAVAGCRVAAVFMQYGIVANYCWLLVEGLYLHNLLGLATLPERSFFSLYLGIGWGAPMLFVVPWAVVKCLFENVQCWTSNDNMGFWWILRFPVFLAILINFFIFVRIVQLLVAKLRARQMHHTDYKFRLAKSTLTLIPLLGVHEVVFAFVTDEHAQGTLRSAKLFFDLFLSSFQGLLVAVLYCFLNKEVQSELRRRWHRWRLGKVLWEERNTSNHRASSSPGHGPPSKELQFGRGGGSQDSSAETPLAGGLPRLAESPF

pEC50 (GCGR)	Agonistic activity on GCGR Max Activity (%) (GCGR)	PPB % unbound (mouse) (mouse plasma albumin)	Tmax [1]	half-life [1]	AUC(0-t) [1]	Cmax [1]	SMILES	ΔBody weight % (comparison of the body weight after 21 days with the body weight on day 1) (DIO mice)
10.57	98.93%	NA/NA	24 h	93 h	5.51 µM·h	43 nM	CC(C)C[C@H](NC(=O)[C@H](CC(C)C)NC(=O)[C@H](Cc1c[nH]c2ccccc12)NC(=O)[C@H](CCC(=O)O)NC(=O)[C@@H](NC(=O)[C@H](Cc1ccccc1)NC(=O)[C@H](CCC(=O)O)NC(=O)[C@@H]1CCCCNC(=O)CN(C(=O)COCCOCCNC(=O)COCCOCCNC(=O)CC[C@H](NC(=O)CCCCCCCCCCCCCCCCCCC(=O)O)C(=O)O)CC(=O)NCCCC[C@H](NC(=O)[C@H](CCC(=O)O)NC(=O)[C@H](CC(=O)O)NC(=O)[C@H](CC(C)C)NC(=O)[C@H](Cc2ccc(O)cc2)NC(=O)[C@H](CCCCN)NC(=O)[C@H](CO)NC(=O)[C@H](Cc2ccc(O)cc2)NC(=O)[C@H](CC(=O)O)NC(=O)[C@H](CO)NC(=O)[C@@H](NC(=O)[C@H](Cc2ccccc2)NC(=O)[C@@H](NC(=O)CNC(=O)[C@H](CCC(N)=O)NC(=O)C(C)(C)NC(=O)[C@@H](N)Cc2c[nH]cn2)[C@@H](C)O)[C@@H](C)O)C(=O)N[C@@H](CCCCN)C(=O)N[C@@H](C)C(=O)N1)C(C)C)C(=O)N[C@@H](CCC(=O)O)C(=O)NCC(=O)NCC(=O)N1CCC[C@H]1C(=O)N[C@@H](CO)C(=O)N[C@@H](CO)C(=O)NCC(N)=O [WX001]	−28.91%
10.27	68.62%	NA/NA	32 h	67 h	5.72 µM·h	48 nM	CC(C)C[C@H](NC(=O)[C@H](CC(C)C)NC(=O)[C@H](Cc1c[nH]c2ccccc12)NC(=O)[C@@H]1CCCCNC(=O)CN(C(=O)COCCOCCNC(=O)COCCOCCNC(=O)CC[C@H](NC(=O)CCCCCCCCCCCCCCCCCCC(=O)O)C(=O)O)CC(=O)NCCCC[C@H](NC(=O)[C@H](C)NC(=O)[C@H](CCCCN)NC(=O)[C@H](CCCCN)NC(=O)[C@H](CCC(=O)O)NC(=O)[C@H](CC(=O)O)NC(=O)[C@H](CC(C)C)NC(=O)[C@H](Cc2ccc(O)cc2)NC(=O)[C@H](CCCCN)NC(=O)[C@H](CO)NC(=O)[C@H](Cc2ccc(O)cc2)NC(=O)[C@H](CC(=O)O)NC(=O)[C@H](CO)NC(=O)[C@@H](NC(=O)[C@H](Cc2ccccc2)NC(=O)[C@@H](NC(=O)CNC(=O)[C@H](CCC(N)=O)NC(=O)C(C)(C)NC(=O)[C@@H](N)Cc2c[nH]cn2)[C@@H](C)O)[C@@H](C)O)C(=O)N[C@@H](CCC(=O)O)C(=O)N[C@@H](Cc2ccccc2)C(=O)N[C@@H](C(C)C)C(=O)N1)C(=O)N[C@@H](CCC(=O)O)C(=O)NCC(=O)NCC(=O)N1CCC[C@H]1C(=O)N[C@@H](CO)C(=O)N[C@@H](CO)C(=O)NCC(N)=O [WX004]	−31.89%
